Experimental data: patent US20150182586A1, “DAIRY FARM TEAT DIP COMPOSITIONS AND METHODS” (Advanced BioCatalytics Corporation, priority 2013, published 2015)

Tested on: mastitis
Assay: Teat dip field test, Dairy 3 (spray, raw milk dairy, 6 week test period)
Assay type: in vivo
Settings: Dairy 3, pre and post milking; chlorine dioxide on cows without previous mastitis (Pens 0, 1, 3, 5), Example 1 on cows with previous mastitis (Pen 7)
Description: Dairy 3 produces raw milk and uses a spray method for applying teat dips. A key factor to note is that Example 1 was used on cows that previously had mastitis. The results of Table 5 compare using chlorine dioxide on cows that had not had mastitis, to using Example 1 on cows that were more susceptible due to previous bouts with mastitis. Once a cow developed mastitis in Dairy 3, it is not used in the production of raw milk. […] Pen No's. 0, 1, 3 and 5 used chlorine dioxide for both pre and post milking. Pen No. 7 used Example 1 for the 6 week test period. In all pens, the cows were retained in pens with saw dust in between milking cycles to reduce the chance of spreading infectious disease.
The number of cows that were […] using the composition of Example 1, for both pre and post milking, during the 6 week test period was 5.3% as shown in Table 5. Table 6 defines the number of cows in each respective pen of Table 5.

[O][Cl+][O-] [chlorine dioxide]
cows that developed mastitis during the 6 week test period: 5.7%
